Data reported in US9238656B2, “Imidazo[4,5-b]pyridine derivatives as ALK and JAK modulators for the treatment of proliferative disorders” (priority 2012, dated 2016).
Counter-ions that a name gives are not always drawn.

Columns and labels:
[1] = target: baculovirus-expressed ALK (Homo sapiens, UniProt Q9UM73); assay: ALK kinase inhibition, TRF/ELISA; type: biochemical; details: read-out: ALK Potency
How it was run: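 Eu-PT66 anti-phosphotyrosine TRF read-out measured phosphorylation of plate-bound GST-PLC-γ (coated at 10 μg/mL). The phosphorylation was driven by 30 ng/mL ALK for 15 minutes at 37° C.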

[2] = target: baculovirus-expressed JAK2 kinase (Homo sapiens, UniProt O60674); assay: biochemical; details: 0.2 μM ATP; read-out: JAK2 Potency
How it was run: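 IC50 derived by variable-slope sigmoidal fit of percent inhibition against log compound concentration. Baculovirus-expressed JAK2 (15 ng/mL) phosphorylated a plate-bound biotinylated 15-mer peptide for 20 min at room temperature; detection by time-resolved fluorescence.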

Sequence of baculovirus-expressed ALK (Q9UM73 19-1620): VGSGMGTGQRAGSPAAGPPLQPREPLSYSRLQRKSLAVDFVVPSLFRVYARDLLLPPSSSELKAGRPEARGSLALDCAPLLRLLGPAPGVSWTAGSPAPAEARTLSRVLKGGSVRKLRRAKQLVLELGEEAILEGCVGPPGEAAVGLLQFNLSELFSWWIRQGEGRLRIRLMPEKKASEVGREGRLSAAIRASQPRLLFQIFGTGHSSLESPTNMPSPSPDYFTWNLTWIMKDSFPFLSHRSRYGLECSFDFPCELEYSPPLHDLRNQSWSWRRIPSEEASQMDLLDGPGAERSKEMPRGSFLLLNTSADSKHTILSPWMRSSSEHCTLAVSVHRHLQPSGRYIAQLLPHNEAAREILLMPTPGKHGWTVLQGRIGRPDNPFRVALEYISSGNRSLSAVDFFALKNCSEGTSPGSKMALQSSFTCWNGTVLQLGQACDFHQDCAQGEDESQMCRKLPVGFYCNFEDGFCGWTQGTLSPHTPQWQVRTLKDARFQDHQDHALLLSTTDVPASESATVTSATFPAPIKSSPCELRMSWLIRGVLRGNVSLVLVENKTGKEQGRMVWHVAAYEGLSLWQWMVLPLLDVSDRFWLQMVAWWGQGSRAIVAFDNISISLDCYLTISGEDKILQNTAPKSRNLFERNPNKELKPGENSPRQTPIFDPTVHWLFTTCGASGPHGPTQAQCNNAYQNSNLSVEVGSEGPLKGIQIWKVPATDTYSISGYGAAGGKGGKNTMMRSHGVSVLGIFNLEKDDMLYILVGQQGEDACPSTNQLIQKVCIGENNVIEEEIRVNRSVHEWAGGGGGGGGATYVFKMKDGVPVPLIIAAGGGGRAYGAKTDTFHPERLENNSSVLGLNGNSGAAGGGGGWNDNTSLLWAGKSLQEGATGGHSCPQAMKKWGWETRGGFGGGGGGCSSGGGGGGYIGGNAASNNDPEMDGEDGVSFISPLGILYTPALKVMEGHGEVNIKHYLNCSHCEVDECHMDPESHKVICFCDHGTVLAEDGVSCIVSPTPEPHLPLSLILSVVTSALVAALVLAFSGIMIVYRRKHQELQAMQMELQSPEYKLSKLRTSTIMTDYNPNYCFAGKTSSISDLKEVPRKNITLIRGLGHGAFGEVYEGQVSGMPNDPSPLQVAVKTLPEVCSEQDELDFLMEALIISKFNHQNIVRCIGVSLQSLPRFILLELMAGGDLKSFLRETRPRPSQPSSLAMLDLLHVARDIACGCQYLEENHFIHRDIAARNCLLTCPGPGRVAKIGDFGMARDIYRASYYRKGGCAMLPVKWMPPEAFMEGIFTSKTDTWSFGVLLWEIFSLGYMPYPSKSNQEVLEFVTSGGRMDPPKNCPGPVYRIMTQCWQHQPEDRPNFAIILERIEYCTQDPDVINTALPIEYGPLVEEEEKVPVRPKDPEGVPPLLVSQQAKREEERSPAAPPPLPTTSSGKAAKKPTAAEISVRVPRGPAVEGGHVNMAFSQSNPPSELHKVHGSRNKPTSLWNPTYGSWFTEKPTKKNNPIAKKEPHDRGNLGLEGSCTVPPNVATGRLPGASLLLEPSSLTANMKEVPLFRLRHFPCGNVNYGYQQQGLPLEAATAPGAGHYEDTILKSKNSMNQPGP
Sequence of baculovirus-expressed JAK2 kinase (O60674 whole entry): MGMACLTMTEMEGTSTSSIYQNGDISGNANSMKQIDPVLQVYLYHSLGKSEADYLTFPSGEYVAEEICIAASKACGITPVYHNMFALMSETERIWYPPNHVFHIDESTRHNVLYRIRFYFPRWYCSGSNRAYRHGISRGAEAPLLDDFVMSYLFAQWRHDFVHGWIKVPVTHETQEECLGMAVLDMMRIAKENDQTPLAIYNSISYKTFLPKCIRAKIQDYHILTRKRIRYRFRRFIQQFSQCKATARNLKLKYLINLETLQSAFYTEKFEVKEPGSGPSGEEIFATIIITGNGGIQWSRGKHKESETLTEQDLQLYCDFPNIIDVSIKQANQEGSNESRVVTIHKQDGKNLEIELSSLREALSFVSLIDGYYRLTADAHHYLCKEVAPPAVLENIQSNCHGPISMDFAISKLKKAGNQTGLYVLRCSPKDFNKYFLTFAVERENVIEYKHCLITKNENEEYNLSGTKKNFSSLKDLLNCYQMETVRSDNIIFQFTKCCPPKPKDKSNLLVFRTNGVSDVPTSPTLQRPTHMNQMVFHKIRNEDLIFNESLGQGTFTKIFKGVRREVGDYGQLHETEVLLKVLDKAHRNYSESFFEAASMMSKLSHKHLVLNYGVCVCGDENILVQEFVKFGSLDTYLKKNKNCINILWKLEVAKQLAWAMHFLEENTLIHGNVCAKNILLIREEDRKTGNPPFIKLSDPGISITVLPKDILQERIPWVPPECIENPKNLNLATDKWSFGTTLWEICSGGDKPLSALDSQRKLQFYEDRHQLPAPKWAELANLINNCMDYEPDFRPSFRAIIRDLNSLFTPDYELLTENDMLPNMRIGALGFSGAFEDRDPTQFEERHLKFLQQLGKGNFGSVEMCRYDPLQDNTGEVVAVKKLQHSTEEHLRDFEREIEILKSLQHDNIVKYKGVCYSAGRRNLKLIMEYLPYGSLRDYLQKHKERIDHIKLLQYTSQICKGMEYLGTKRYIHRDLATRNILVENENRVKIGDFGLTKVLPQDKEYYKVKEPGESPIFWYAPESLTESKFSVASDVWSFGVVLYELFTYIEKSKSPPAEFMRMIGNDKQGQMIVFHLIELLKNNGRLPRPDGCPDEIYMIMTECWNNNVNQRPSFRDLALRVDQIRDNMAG

SMILES | IC50 [1] [nM] | IC50 [2] [nM]
COc1cc(CN2CCOCC2)ccc1-c1nc2c(N[C@@H]3CCCC[C@H]3NS(C)(=O)=O)c(Cl)cnc2[nH]1 [Compound LXX, N-{(1R,2R)-2-[6-Chloro-2-(2-methoxy-4-morpholin-4-ylmethyl-phenyl)-3H-imidazo[4,5-b]pyridine-7-ylamino]-cyclohexyl}-methanesulfonamide] | < 100 | 1000 to 10000
COc1cc(CN2CCN(C)CC2)ccc1-c1nc2c(N[C@@H]3CCCC[C@H]3NS(C)(=O)=O)c(Cl)cnc2[nH]1 [Compound LXXI, N-((1R,2R)-2-{6-Chloro-2-[2-methoxy-4-(4-methyl-piperazin-1-ylmethyl)-phenyl]-3H-imidazo[4,5-b]pyridine-7-ylamino}-cyclohexyl)-methanesulfonamide] | < 100 | 1000 to 10000
COc1cc(N2CCOCC2)ccc1-c1nc2c(N[C@@H]3CCCC[C@H]3NS(C)(=O)=O)c(Cl)cnc2[nH]1 [Compound LXXII, N-{(1R,2R)-2-[6-Chloro-2-(2-methoxy-4-morpholin-4-yl-phenyl)-3H-imidazo[4,5-b]pyridine-7-ylamino]-cyclohexyl}-methanesulfonamide] | < 100 | > 10000
COc1ccc(CN2CCOCC2)cc1-c1nc2c(N[C@@H]3CCCC[C@H]3NS(C)(=O)=O)c(Cl)cnc2[nH]1 [Compound LXXIV, N-{(1R,2R)-2-[6-Chloro-2-(2-methoxy-5-morpholin-4-ylmethyl-phenyl)-3H-imidazo[4,5-b]pyridine-7-ylamino]-cyclohexyl}-methanesulfonamide] | 100 to 1000 | > 10000
COc1cc(CN2CC[C@@H](O)C2)ccc1-c1nc2c(N[C@@H]3CCCC[C@H]3NS(C)(=O)=O)c(Cl)cnc2[nH]1 [Compound LXXV, N-((1R,2R)-2-{6-Chloro-2-[4-((R)-3-hydroxy-pyrrolidin-1-ylmethyl)-2-methoxy-phenyl]-3H-imidazo[4,5-b]pyridine-7-ylamino}-cyclohexyl)-methanesulfonamide] | < 100 | 1000 to 10000
NC(=O)[C@@H]1[C@H](Nc2c(Br)cnc3[nH]c(-c4ccc(CN5CCOCC5)cc4)nc23)[C@H]2C=C[C@@H]1C2 [Compound LXXX, (1S,2S,3R,4R)-3-[6-Bromo-2-(4-morpholin-4-ylmethyl-phenyl)-3H-imidazo[4,5-b]pyridin-7-ylamino]-bicyclo[2.2.1]hept-5-ene-2-carboxylic acid amide] | < 100 | < 100
CC(C)(C)OC(=O)N1CCCC(c2nc3c(N[C@H]4[C@@H](C(N)=O)[C@@H]5C=C[C@H]4C5)c(Cl)cnc3[nH]2)C1 (stereo partly drawn) [Compound XI, 3-[7-((1R,2R,3S,4S)-3-Carbamoyl-bicyclo[2.2.1]hept-5-en-2-ylamino)-6-chloro-3H-imidazo[4,5-b]pyridine-2-yl]-piperidine-1-carboxylic acid tert-butyl ester] | > 10000 | > 10000
CN(C)c1cccc(-c2nc3c(N[C@H]4[C@@H](C(N)=O)[C@@H]5C=C[C@H]4C5)c(Cl)cnc3[nH]2)c1 [Compound XII, (1S,2S,3R,4R)-3-[6-Chloro-2-(3-dimethylamino-phenyl)-3H-imidazo[4,5-b]pyridin-7-ylamino]-bicyclo[2.2.1]hept-5-ene-2-carboxylic acid amide] | 100 to 1000 | < 100
COc1cc(CN2CCNCC2)ccc1-c1nc2c(N[C@H]3[C@@H](C(N)=O)[C@@H]4C=C[C@H]3C4)c(Cl)cnc2[nH]1 [Compound XLII, (1S,2S,3R,4R)-3-[6-Chloro-2-(2-methoxy-4-piperazin-1-ylmethyl-phenyl)-3H-imidazo[4,5-b]pyridine-7-ylamino]-bicyclo[2.2.1]hept-5-ene-2-carboxylic acid amide] | < 100 | 100 to 1000
COc1cc(C2CCN(C[C@H](C)O)CC2)ccc1-c1nc2c(N[C@H]3[C@@H](C(N)=O)[C@@H]4C=C[C@H]3C4)c(Cl)cnc2[nH]1 [Compound XLV, (1S,2S,3R,4R)-3-(6-Chloro-2-{4-[1-((S)-2-hydroxypropyl)-piperidin-4-yl]-2-methoxyphenyl}-3H-imidazo[4,5-b]pyridine-7-ylamino)-bicyclo[2.2.1]hept-5-ene-2-carboxylic acid amide] | < 100 | < 100
COc1cc(CN(C)C)ccc1-c1nc2c(N[C@H]3[C@@H](C(N)=O)[C@@H]4C=C[C@H]3C4)c(Cl)cnc2[nH]1 [Compound XLVI, (1S,2S,3R,4R)-3-[6-Chloro-2-(4-dimethylaminomethyl-2-methoxyphenyl)-3H-imidazo[4,5-b]pyridine-7-ylamino)-bicyclo[2.2.1]hept-5-ene-2-carboxylic acid amide, trifluoroacetic acid salt] | < 100 | < 100
COc1cc(CN2CC[C@@H](O)C2)ccc1-c1nc2c(N[C@H]3[C@@H](C(N)=O)[C@@H]4C=C[C@H]3C4)c(Cl)cnc2[nH]1 [Compound XLVII, (1S,2S,3R,4R)-3-(6-Chloro-2-[4-((R)-3-hydroxy-pyrrolidin-1-ylmethyl)-2-methoxyphenyl]-3H-imidazo[4,5-b]pyridine-7-ylamino)-bicyclo[2.2.1]hept-5-ene-2-carboxylic acid amide] | < 100 | < 100
COc1cc(C2=CCN(C[C@H](C)O)CC2)ccc1-c1nc2c(N[C@H]3[C@@H](C(N)=O)[C@@H]4C=C[C@H]3C4)c(Cl)cnc2[nH]1 [Compound XLVIII, (1S,2S,3R,4R)-3-(6-Chloro-2-[4-[1((S)-2-hydroxypropyl)-1,2,3,6-tetrahydro-pyridin-4-yl]-2-methoxyphenyl]-3H-imidazo[4,5-b]pyridine-7-ylamino)-bicyclo[2.2.1]hept-5-ene-2-carboxylic acid amide] | < 100 | < 100
NC(=O)[C@@H]1[C@H](Nc2c(Cl)cnc3[nH]c(-c4ccc(N5CCNCC5)cc4)nc23)[C@H]2C=C[C@@H]1C2 [Compound XV, (1S,2S,3R,4R)-3-[6-Chloro-2-(4-piperazin-1-yl-phenyl)-3H-imidazo[4,5-b]pyridin-7-ylamino]-bicyclo[2.2.1]hept-5-ene-2-carboxylic acid amide trifluoroacetic acid salt] | < 100 | < 100
NC(=O)[C@@H]1[C@H](Nc2c(Cl)cnc3[nH]c(-c4cccc(CN5CCOCC5)c4)nc23)[C@H]2C=C[C@@H]1C2 [Compound XVI, (1S,2S,3R,4R)-3-[6-Chloro-2-(3-morpholin-4-ylmethyl-phenyl)-3H-imidazo[4,5-b]pyridin-7-ylamino]-bicyclo[2.2.1]hept-5-ene-2-carboxylic acid amide trifluoroacetic acid salt] | < 100 | < 100
COc1cc(N(C)C)ccc1-c1nc2c(N[C@H]3[C@@H](C(N)=O)[C@@H]4C=C[C@H]3C4)c(Cl)cnc2[nH]1 [Compound XVII, (1S,2S,3R,4R)-3-[6-Chloro-2-(4-dimethylamino-2-methoxy-phenyl)-3H-imidazo[4,5-b]pyridine-7-ylamino]-bicyclo[2.2.1]hept-5-ene-2-carboxylic acid amide] | < 100 | < 100
COc1cc(OC(F)(F)F)ccc1-c1nc2c(N[C@H]3[C@@H](C(N)=O)[C@@H]4C=C[C@H]3C4)c(Cl)cnc2[nH]1 [Compound XVIII, (1S,2S,3R,4R)-3-[6-Chloro-2-(2-methoxy-4-trifluoromethoxy-phenyl)-3H-imidazo[4,5-b]pyridine-7-ylamino]-bicyclo[2.2.1]hept-5-ene-2-carboxylic acid amide] | < 100 | 100 to 1000
